# Results reported in ChEMBL document CHEMBL1123175, “Synthesis and biological activity of several amino nucleoside-platinum(II) complexes” (1986).
# Experiments:
# [1] = tested on: L1210; assay: Compound was tested for the inhibition of the transport of methionine into L1210 cells at the 10 uM concentration after <20 min; format: functional; conditions: Mus musculus
# [2] = tested on: L1210; assay: Compound was tested for the inhibition of the transport of aminoisobutyric acid into L1210 cells at the 10 uM concentration after <20 min; format: functional; conditions: Mus musculus
Sequence,inhibition [1],inhibition [2]
CISPLATIN,10%,15%
TRANSPLATIN,< 5%,< 5%
